≈ marks a conversion by molar mass, not a printed value.
Experiments:
[1] = system: E. faecium 1798; test: microbe, parasite or virus in culture; assay type: cell-based, Enterococcus faecium; details: 1798, 24 h
Method: (§1) Overnight cultures of the enterococcal isolates were diluted in physiological saline (0.9% NaCl) to reach a turbidity of 0.5 McFarland units (Sensititre® nephelometer and the Sensititre® McFarland Standard). Bacterial suspensions were adjusted to 5 × 10^5 CFU/mL in MHB II or BHI broth containing two-fold dilutions of peptidomimetics or conventional antibiotics in a final volume of 100 µL. The plates were incubated for 24 h at 37 °C without shaking. […] All experiments were performed in three biological replicates.

[2] = system: E. faecium 2961; test: microbe, parasite or virus in culture; assay type: cell-based, Enterococcus faecium; details: 2961, 24 h
Method: as §1

[3] = system: E. faecium 3978; test: microbe, parasite or virus in culture; assay type: cell-based, Enterococcus faecium; details: 3978, 24 h
Method: as §1

[4] = system: E. faecium D344R; test: microbe, parasite or virus in culture; assay type: cell-based, Enterococcus faecium; details: E. faecium D344R, human clinical isolate; 24 h
Method: as §1

[5] = system: E. faecium ATCC 19434; test: microbe, parasite or virus in culture; assay type: cell-based, Enterococcus faecium; details: ATCC 19434, 24 h
Method: as §1, with “replicates. […]” for “replicates.”

[6] = system: E. faecalis ATCC 29212; test: microbe, parasite or virus in culture; assay type: cell-based, Enterococcus faecalis; details: ATCC 29212, 24 h
Method: as §1, with “replicates. […]” for “replicates.”

[7] = system: E. faecalis 38262; test: microbe, parasite or virus in culture; assay type: cell-based, Enterococcus faecalis; details: 38262, 24 h
Method: as §1

[8] = system: E. faecalis 39002; test: microbe, parasite or virus in culture; assay type: cell-based, Enterococcus faecalis; details: 39002, 24 h
Method: as §1

[9] = Hemolytic activity; assay type: cell-based, human; details: human, human red blood cells (washed, 1% suspension), 37 °C, 1% red blood cell suspension
Method: A suspension of hRBCs (Single-donor human red blood cells—washed; catalogue No. IPLA-W3 from Innovative researchTM) was washed three times with PBS buffer and centrifuged for 5 min at 2500 rpm. A two-fold serial dilution of compounds in PBS buffer was prepared. Plates (conical-bottomed 96-well plates) with 3 replicate wells per dilution, containing 1% red blood cell suspension, were prepared and dosed with the test compound to achieve a final concentration of 400 μg/mL in a total volume of 100 μL. The plates were incubated (37 °C) for 60 min with mild agitation, and then the cells were pelleted by centrifugation at 1500 rpm for 5 min. Then, the supernatants (50 μL) were transferred to a fresh 96-well plate, and then the concentration of hemoglobin was detected by measuring the OD at 405 nm. The OD of cells incubated with 1% SDS achieved 100% hemolysis, while the OD of cells incubated with PBS buffer achieved 0% hemolysis. The concentration tested was 400 μg/mL (only average values are stated in Table 3). The percent hemolysis was calculated by using the formula:Hemolysis(%) = 100 × [(Asample − Aneg.control)/(Apos. control − Aneg.control)]

[10] = system: E. faecium (MV388); assay type: cell-based, Enterococcus faecium; details: MV388, 24 h
Method: (§2) The minimum bactericidal concentration (MBC) is defined as the lowest concentration of the peptidomimetics that kills 99.9% of the bacterial population. All experiments were performed in three biological replicates.

[11] = system: E. faecalis (MV269); assay type: cell-based, Enterococcus faecalis; details: MV269, 24 h
Method: as §2

[12] = system: E. faecium ATCC 19434; test: Time-kill kinetics; assay type: cell-based, Enterococcus faecium; details: for Reduction in viable bacteria (time-kill): up to 5 h exposure, BHI broth
Method: (§3) Time–kill kinetics were established for compounds 2, 5 and 10 in E. faecium ATCC 19434 and E. faecalis ATCC 29212. Prior to the experiments, the isolates were incubated on BHI agar supplemented with 5% calf blood at 37 °C overnight (ON). For each of the strains 1-2 colonies were transferred into 4 mL BHI broth and incubated ON at 37 °C with shaking (180 rpm). OD600 was measured, and then cultures were diluted with BHI broth to an OD600 of 0.05 and grown for approximately 2 h to reach the exponential phase.
(§4) One untreated control per strain was prepared. The inoculum was quantified by plating and subsequently enumerated. The initial inocula were approximately 10^7 CFU/mL. Two controls were included, both without bacteria and one including the respective compound without bacteria. All tubes were incubated at 37 °C with shaking (180 rpm). Samples of 100 µL were taken after 1 h, 3 h and 5 h of exposure. Appropriate dilutions were spread onto BHI agar plates and incubated at 37 °C overnight, and then colonies were enumerated. Plates were incubated for 24 h and 48 h, and then checked for the appearance of slow-growing colonies. The experiments were performed with at least three biological replicates for each condition and time point.

[13] = system: E. faecalis ATCC 29212; test: Time-kill kinetics; assay type: cell-based, Enterococcus faecalis; details: for Reduction in viable bacteria (time-kill): 4× MIC (compound 2: 8 µg/mL, 2–4× MIC), 5 h exposure, BHI broth
Method: as §3, §4

[14] = system: enterococci; test: Checkerboard assay, overall synergy statements; assay type: cell-based, Enterococcus faecium and Enterococcus faecalis; details: for Resensitization of two vancomycin-resistant E. faecium isolates toward vancomycin / Sensitization of enterococcal isolates to gentamicin: sub-inhibitory concentrations; for Synergy with conventional antibiotics: vancomycin, gentamicin, ciprofloxacin, linezolid, rifampicin or azithromycin, synergy = FICI ≤ 0.5
Method: The strain culture preparation and final volume were the same as in the MIC assay. […] The plates were incubated for 24 h at 37 °C without shaking. […] All experiments were performed in two biological replicates.
To evaluate the effect of the combinations, the fractional inhibitory concentration index (FICI) was calculated for each combination according to:ΣFIC = FICA + FICB = (CA/MICA) + (CB/MICB)
The drug interaction was scored as follows: synergy—FICI ≤ 0.5; no interaction—FICI > 0.5–4; antagonism—FICI > 4 [40].

Compound | Minimum inhibitory concentration [1] [mg/L] | Minimum inhibitory concentration [2] [mg/L] | Minimum inhibitory concentration [3] [mg/L] | Minimum inhibitory concentration [4] [mg/L] | Minimum inhibitory concentration [5] [mg/L] | Minimum inhibitory concentration [6] [mg/L] | Minimum inhibitory concentration [7] [mg/L] | Minimum inhibitory concentration [8] [mg/L] | hemolysis at 60 min, 400 µg/mL [9] [%] | Minimum bactericidal concentration [10] [mg/L] | Minimum bactericidal concentration [11] [mg/L] | Reduction in viable bacteria (time-kill) ([12]; 4× MIC) | Reduction in viable bacteria (time-kill) [13] | Resensitization of two vancomycin-resistant E. faecium isolates toward vancomycin [14] | Sensitization of enterococcal isolates to gentamicin [14] | Synergy with conventional antibiotics [14] | Bactericidal or bacteriostatic mode of action ([12]; 8 µg/mL (4× MIC)) | Reduction in viable cell counts within 1 h ([12]; 4× MIC, within 1 h of exposure) | Reduction in viable cell counts within 1 h ([13]; 4× MIC, within 1 h of exposure)
CCCCCCCC(=O)N[C@@H](CCCCN)C(=O)N(CCC(=O)N[C@@H](CCCCN)C(=O)N(CCC(=O)N[C@@H](CCCCN)C(=O)N(CCC(=O)N[C@@H](CCCCN)C(=O)N(CCC(=O)N[C@@H](CCCCN)C(=O)N(CCC(=O)N[C@@H](CCCCN)C(=O)N(CCC(N)=O)[C@@H](C)c1ccccc1)[C@@H](C)c1ccccc1)[C@@H](C)c1ccccc1)[C@@H](C)c1ccccc1)[C@@H](C)c1ccccc1)[C@@H](C)c1ccccc1 [Compound 10, Oct-[Lys-βNspe]6-NH2] | 2 to 4 | 4 (≈ 2.04 µM) | 2 to 4 | 4 (≈ 2.04 µM) | 8 (≈ 4.07 µM) | 8 to 16 | 16 (≈ 8.15 µM) | 8 (≈ 4.07 µM) | < 10 | 16 (≈ 8.15 µM) | 32 (≈ 16.3 µM) | 4 log | 5 log | this was not the case | did not sensitize | no synergy |  |  | 
CC(=O)N[C@@H](CCCCNC(=N)N)C(=O)N(CCC(=O)N[C@@H](CCCCNC(=N)N)C(=O)N(CCC(=O)N[C@@H](CCCCNC(=N)N)C(=O)N(CCC(=O)N[C@@H](CCCCNC(=N)N)C(=O)N(CCC(=O)N[C@@H](CCCCNC(=N)N)C(=O)N(CCC(=O)N[C@@H](CCCCNC(=N)N)C(=O)N(CCC(N)=O)[C@@H](C)C1CCCCC1)[C@@H](C)C1CCCCC1)[C@@H](C)C1CCCCC1)[C@@H](C)C1CCCCC1)[C@@H](C)C1CCCCC1)[C@@H](C)C1CCCCC1 [Compound 2, Ac-[hArg-βNsce]6-NH2] | 2 (≈ 0.922 µM) | 2 (≈ 0.922 µM) | 2 (≈ 0.922 µM) | 2 (≈ 0.922 µM) | 2 (≈ 0.922 µM) | 2 to 4 | 4 (≈ 1.84 µM) | 2 (≈ 0.922 µM) | 98.4 | 4 to 8 | 8 (≈ 3.69 µM) | approximately 3 log | approximately 2 log | this was not the case | did not sensitize | no synergy | bactericidal |  | 
CC(=O)N[C@@H](CCCCNC(=N)N)C(=O)N(CCC(=O)N[C@@H](CCCCN)C(=O)N(CCC(=O)N[C@@H](CCCCNC(=N)N)C(=O)N(CCC(=O)N[C@@H](CCCCN)C(=O)N(CCC(=O)N[C@@H](CCCCNC(=N)N)C(=O)N(CCC(=O)N[C@@H](CCCCN)C(=O)N(CCC(N)=O)[C@@H](C)c1ccccc1)[C@@H](C)C1CCCCC1)[C@@H](C)c1ccccc1)[C@@H](C)C1CCCCC1)[C@@H](C)c1ccccc1)[C@@H](C)C1CCCCC1 [Compound 5, Ac-[hArg-βNsce-Lys-βNspe]3-NH2] | 2 (≈ 0.988 µM) | 2 (≈ 0.988 µM) | 2 (≈ 0.988 µM) | 2 (≈ 0.988 µM) | 4 (≈ 1.98 µM) | 4 to 8 | 8 to 16 | 8 to 16 | < 10 | 128 (≈ 63.2 µM) | 16 (≈ 7.91 µM) | 1.5 log | 3 log | this was not the case | did not sensitize | no synergy |  | no reduction in viable cell counts | no reduction in viable cell counts

Source: paper PMC8197855, “Peptide/β-Peptoid Hybrids with Activity against Vancomycin-Resistant Enterococci: Influence of Hydrophobicity and Structural Features on Antibacterial and Hemolytic Properties” (International Journal of Molecular Sciences, 2021)
